Test results reported in ChEMBL document CHEMBL3774361, “Synthesis and evaluation of thieno[2,3-d]pyrimidin-4(3H)-ones as potential antitubercular agents” (Medchemcomm, 2015).
≈ marks a conversion by molar mass, not a printed value.

Tests used:
[1] = Selectivity index, ratio of GI50 for human THP1 cells to MIC90 for active stage of Mycobacterium bovis BCG ATCC 35743; type: toxicity, cell-based, THP-1; settings: read-out: Selectivity Index
[2] = Selectivity index, ratio of GI50 for human THP1 cells to MIC90 for active stage of Mycobacterium tuberculosis H37Ra; type: toxicity, cell-based, THP-1; settings: read-out: Selectivity Index
[3] = Selectivity index, ratio of GI50 for human HCT116 cells to MIC90 for active stage of Mycobacterium bovis BCG ATCC 35743; type: toxicity, cell-based, HCT-116; settings: read-out: Selectivity Index
[4] = Selectivity index, ratio of GI50 for human HCT116 cells to MIC90 for active stage of Mycobacterium tuberculosis H37Ra; type: toxicity, cell-based, HCT-116; settings: read-out: Selectivity Index
[5] = Selectivity index, ratio of GI50 for human A549 cells to MIC90 for active stage of Mycobacterium bovis BCG ATCC 35743; type: toxicity, cell-based; settings: read-out: Selectivity Index
[6] = Selectivity index, ratio of GI50 for human A549 cells to MIC90 for active stage of Mycobacterium tuberculosis H37Ra; type: toxicity, cell-based; settings: read-out: Selectivity Index
[7] = Selectivity index, ratio of GI50 for human MCF7 cells to MIC90 for active stage of Mycobacterium bovis BCG ATCC 35743; type: toxicity, cell-based; settings: read-out: Selectivity Index
[8] = Selectivity index, ratio of GI50 for human MCF7 cells to MIC90 for active stage of Mycobacterium tuberculosis H37Ra; type: toxicity, cell-based; settings: read-out: Selectivity Index
[9] = Cytotoxicity against human THP1 cells incubated for 1 to 11 days by MTT assay; type: cell-based, THP-1
[10] = Cytotoxicity against human HCT116 cells incubated for 1 to 11 days by MTT assay; type: cell-based, HCT-116
[11] = system: Mycobacterium tuberculosis; assay: Antitubercular activity against active stage of Mycobacterium tuberculosis H37Ra assessed as cell viability after 8 days by XTT reduction menadione assay; type: functional; settings: 192 h
[12] = system: Mycobacterium tuberculosis; assay: Antitubercular activity against dormant stage of Mycobacterium tuberculosis H37Ra assessed as cell viability after 12 days by XTT reduction menadione assay; type: functional; settings: 288 h
[13] = Antibacterial activity against active stage of Mycobacterium bovis BCG ATCC 35743 assessed as cell viability after 8 days by nitrate reductase assay; type: functional, Mycobacterium bovis BCG str. ATCC 35743; settings: Mycobacterium tuberculosis variant bovis BCG, ATCC 35743, 192 h
[14] = Antibacterial activity against dormant stage of Mycobacterium bovis BCG ATCC 35743 assessed as cell viability after 12 days by nitrate reductase assay; type: functional, Mycobacterium bovis BCG str. ATCC 35743; settings: Mycobacterium tuberculosis variant bovis BCG, ATCC 35743, 288 h
[15] = Cytotoxicity against human MCF7 cells incubated for 1 to 11 days by MTT assay; type: cell-based
[16] = (§1) Cytotoxicity against human A549 cells incubated for 1 to 11 days by MTT assay; type: cell-based; settings: A549 cells
A549 = assay: as §1; type: cell-based; settings: a549

Row | SMILES | selectivity ratio [1] | selectivity ratio [2] | selectivity ratio [3] | selectivity ratio [4] | selectivity ratio [5] | selectivity ratio [6] | selectivity ratio [7] | selectivity ratio [8] | GI50 [9] [µg/mL] | GI50 [10] [µg/mL] | MIC90 [11] | MIC90 [12] [µg/mL] | MIC90 [13] [µg/mL] | MIC90 [14] [µg/mL] | GI50 [15] [µg/mL] | GI50 [16] [µg/mL] | GI90 (A549) [µg/mL]
1 | CCCCCn1cnc2sc(CC)cc2c1=O | 10 | 2 | 10 | 2 | > 10 | 2 | > 10 | 2 | > 100 | > 100 | 44.1 µg/mL | 43.8 (≈ 175 µM) | 10.1 (≈ 40.3 µM) | 20.8 (≈ 82.9 µM) | > 100 | > 100 | –
2 | CCCCCCCc1cc2c(=O)n(CC3CC3)cnc2s1 | 66 | 2 | 66 | 2 | > 66 | 2 | > 66 | 2 | > 100 | > 100 | 49.3 µg/mL | 49.1 (≈ 161 µM) | 1.52 (≈ 4.99 µM) | 2.01 (≈ 6.6 µM) | > 100 | > 100 | –
3 | CCCCCCCc1cc2c(=O)n(CCN=[N+]=[N-])cnc2s1 | 77 | 48 | 77 | 48 | > 77 | 48 | > 77 | 48 | > 100 | > 100 | 6.5 µM | 8.33 (≈ 26.1 µM) | 1.3 (≈ 4.07 µM) | 2.26 (≈ 7.08 µM) | > 100 | > 100 | –
4 | CCCCCCCCCCc1cc2c(=O)n(CCO)cnc2s1 | 5 | 15 | 5 | 15 | > 5 | 15 | > 5 | 15 | > 100 | > 100 | 6.7 µg/mL | 15 (≈ 44.6 µM) | 21.4 (≈ 63.7 µM) | 23.4 (≈ 69.6 µM) | > 100 | > 100 | –
5 | CCCCCCCc1cc2c(=O)n(CC#N)cnc2s1 | 53 | 40 | 53 | 40 | > 53 | 40 | > 53 | 40 | > 100 | > 100 | 8.68 µM | 5.2 (≈ 18 µM) | 1.89 (≈ 6.53 µM) | 3.02 (≈ 10.4 µM) | > 100 | > 100 | –
6 | CCCCCCCc1cc2c(=O)n(CCCBr)cnc2s1 | 16 | 6 | 16 | 6 | 5 | 2 | 3 | 1 | > 100 | > 100 | 17.5 µg/mL | 18.5 (≈ 49.8 µM) | 6.3 (≈ 17 µM) | 9.37 (≈ 25.2 µM) | 19.7 (≈ 53 µM) | 34.1 (≈ 92 µM) | –
7 | CCCCCCc1cc2c(=O)n(CCN=[N+]=[N-])cnc2s1 | 25 | 12 | 4 | 2 | 4 | 2 | > 25 | 12 | > 100 | 14.7 (≈ 48.1 µM) | 8.42 µg/mL | 11.5 (≈ 37.8 µM) | 4.08 (≈ 13.4 µM) | 4.51 (≈ 14.8 µM) | > 100 | 16.2 (≈ 52.9 µM) | 74.66 (≈ 244 µM)
8 | CCCCCc1cc2c(=O)n(CCC)cnc2s1 | 12 | 2 | 12 | 2 | 3 | 1 | 4 | 1 | > 100 | > 100 | 42.9 µg/mL | 36.3 (≈ 137 µM) | 8.51 (≈ 32.2 µM) | 9.82 (≈ 37.1 µM) | 33.8 (≈ 128 µM) | 27.4 (≈ 103 µM) | –
9 | C=CCCCCCCCc1cc2c(=O)n(CCBr)cnc2s1 | 41 | 29 | 18 | 12 | 19 | 13 | 11 | 7 | > 100 | 42.4 (≈ 111 µM) | 3.5 µg/mL | 6.31 (≈ 16.5 µM) | 2.42 (≈ 6.31 µM) | 1.4 (≈ 3.65 µM) | 26.1 (≈ 68.1 µM) | 45.4 (≈ 119 µM) | –
10 | CCCCCc1cc2c(=O)n(CC3CC3)cnc2s1 | 20 | 3 | 20 | 3 | > 20 | 3 | > 20 | 3 | > 100 | > 100 | 38.3 µg/mL | > 50 | 4.95 (≈ 17.9 µM) | 8.07 (≈ 29.2 µM) | > 100 | > 100 | –
11 | CCCCCCCCCCc1cc2c(=O)n(CCBr)cnc2s1 | 44 | 4 | 44 | 4 | 15 | 1 | 9 | 1 | > 100 | > 100 | 24.6 µg/mL | 35.2 (≈ 88.2 µM) | 2.29 (≈ 5.73 µM) | 3.35 (≈ 8.39 µM) | 20.5 (≈ 51.4 µM) | 35.1 (≈ 87.8 µM) | –
12 | CCCCCCc1cc2c(=O)n(CC3CC3)cnc2s1 | 73 | 2 | 13 | – | > 73 | 2 | 18 | 1 | > 100 | 17.6 (≈ 60.7 µM) | 45.9 µg/mL | 42.7 (≈ 147 µM) | 1.37 (≈ 4.72 µM) | 2.34 (≈ 8.06 µM) | 24.8 (≈ 85.5 µM) | > 100 | –
13 | CC(=O)O[C@H]1C(=O)[C@@]2(C)[C@H]([C@H](OC(=O)c3ccccc3)[C@]3(O)C[C@H](OC(=O)[C@H](O)[C@@H](NC(=O)c4ccccc4)c4ccccc4)C(C)=C1C3(C)C)[C@]1(OC(C)=O)CO[C@@H]1C[C@@H]2O [PACLITAXEL] | – | – | – | – | – | – | – | – | 0.137 (≈ 0.161 µM) | 0.026 (≈ 0.0304 µM) | – | – | – | – | 0.0048 (≈ 0.00562 µM) | – | –
14 | CO[C@H]1/C=C/O[C@@]2(C)Oc3c(C)c(O)c4c(O)c(c(/C=N/N5CCN(C)CC5)c(O)c4c3C2=O)NC(=O)/C(C)=C\C=C\[C@H](C)[C@H](O)[C@@H](C)[C@@H](O)[C@@H](C)[C@H](OC(C)=O)[C@@H]1C [RIFAMPIN] | 222 | 196 | 222 | 196 | – | 196 | – | 196 | > 100 | > 100 | 0.51 µg/mL | 0.75 (≈ 0.911 µM) | 0.45 (≈ 0.547 µM) | 0.81 (≈ 0.984 µM) | > 100 | > 100 | –
